Test results published in patent publication US10953115B2, “Production of sterile active pharmaceutical ingredients” (Icrom S.R.L., priority 2012, dated 2021).

Assays:
[1] = stated as reason why sterile filtration is not achievable; cited from earlier work
[2] = Appearance and related substances (USP Brinzolamide monograph) after gamma-ray sterilisation; format: physicochemical
Description: All the analysis were performed according to USP Brinzolamide monograph, sterility and bioburden test were performed according to Eur. Ph. and USP.
Two related substances (impurities) are described in the USP monograph: Impurity A and Impurity B.
The material was tested according to USP, details about appearance of the powder, related substances and sterility were given in Table 1.
The material was tested according to USP, details about appearance of the powder, related substances and sterility were given in Table 2.
The material was tested according to USP, details about appearance of the powder, related substances and sterility were given in Table 3.
The material was tested according to USP, details about appearance of the powder, related substances and sterility were given in Table 4.
The material was tested according to USP, details about appearance of the powder, related substances and sterility were given in Table 5.

[3] = micronised, LDPE liner in double barrier foil (no vacuum), 25 KGy, RT
[4] = micronised, packed under vacuum, 25 KGy, RT
[5] = micronised, under vacuum and helium, 25 KGy, −78° C.
[6] = micronised, under vacuum and nitrogen, 25 KGy, −78° C.
[7] = not-micronized, LDPE liner in barrier foil, 10 KGy, RT
[8] = not-micronized, LDPE liner in barrier foil, 15 KGy, RT
[9] = not-micronized, LDPE liner in barrier foil, 20 KGy, RT
[10] = not-micronized, LDPE liner in barrier foil, 25 KGy, RT

Compliance with USP specification ([2]; Example 2: micronised, no vacuum, 25 KGy, RT): does not complies with USP specification
Compliance with USP specification ([2]; Example 3: micronised, under vacuum, 25 KGy, RT): complies with USP specification
Compliance with USP specification ([2]; Example 4: micronised, under vacuum and nitrogen, 25 KGy, −78° C.): complies with USP specification
Compliance with USP specification ([2]; Example 5: micronised, under vacuum and helium, 25 KGy, −78° C.): complies with USP specification
Appearance [2, 3]: Almost White powder
Impurity A [2, 3]: Not detected
Impurity B [2, 3]: 0.29%
Impurity C [2, 3]: <0.05%
Impurity D [2, 3]: 0.62%
Total Impurities [2, 3]: 1.4%
Appearance [2, 4]: White powder
Impurity A [2, 4]: Not detected
Impurity B [2, 4]: 0.09%
Impurity C [2, 4]: <0.05%
Impurity D [2, 4]: 0.30%
Total Impurities [2, 4]: 0.6%
Appearance [2, 5]: White powder
Impurity A [2, 5]: Not detected
Impurity B [2, 5]: 0.06%
Impurity C [2, 5]: <0.05%
Impurity D [2, 5]: 0.11%
Total Impurities [2, 5]: 0.2%
Appearance [2, 6]: White powder
Impurity A [2, 6]: Not detected
Impurity B [2, 6]: 0.08%
Impurity C [2, 6]: <0.05%
Impurity D [2, 6]: 0.16%
Total Impurities [2, 6]: 0.3%
Appearance [2, 7]: White powder
Impurity A [2, 7]: Not detected
Impurity B [2, 7]: 0.06%
Impurity C [2, 7]: <0.05%
Impurity D [2, 7]: 0.11%
Total Impurities [2, 7]: 0.2%
Appearance [2, 8]: White powder
Impurity A [2, 8]: Not detected
Impurity B [2, 8]: 0.07%
Impurity C [2, 8]: <0.05%
Impurity D [2, 8]: 0.14%
Total Impurities [2, 8]: 0.2%
Appearance [2, 9]: Greenish powder
Impurity A [2, 9]: Not detected
Impurity B [2, 9]: 0.10%
Impurity C [2, 9]: <0.05%
Impurity D [2, 9]: 0.19%
Total Impurities [2, 9]: 0.3%
Appearance [2, 10]: Greenish powder
Impurity A [2, 10]: Not detected
Impurity B [2, 10]: 0.10%
Impurity C [2, 10]: <0.05%
Impurity D [2, 10]: 0.21%
Total Impurities [2, 10]: 0.4%
SMILES: CCN[C@H]1CN(CCCOC)S(=O)(=O)c2sc(S(N)(=O)=O)cc21 [Brinzolamide]
Solubility [1]: poor solubility
Compliance with USP specifications ([2]; Example 1: not-micronized, 10, 15, 20 and 25 KGy, RT): complies with the USP specifications apart the appearance of the powder in the 20 and 25 KGy trials
